Laboratory results from ChEMBL document CHEMBL5576112, “Synthesis, in silico, in vitro evaluation of furanyl- and thiophenyl-3-phenyl-1H-indole-2-carbohydrazide derivatives as tubulin inhibitors and anticancer agents” (RSC Med Chem, 2024).
The source made the active and inactive calls. The calls are words filed in the database; no cut-off is given here.

Tests used:
[1] = system: NCI-H522; experiment: Growth inhibition of human NCI-H522 cells measured after 48 hrs by sulforhodamine B assay; format: functional; settings: for CC50: read-out: LC50 (the source's name)
[2] = system: COLO 205; experiment: Growth inhibition of human COLO 205 cells measured after 48 hrs by sulforhodamine B assay; format: functional; settings: for CC50: read-out: LC50 (the source's name)
[3] = system: MDA-MB-435; experiment: Growth inhibition of human MDA-MB-435 cells measured after 48 hrs by sulforhodamine B assay; format: functional; settings: for CC50: read-out: LC50 (the source's name)
[4] = system: SK-MEL-5; experiment: Growth inhibition of human SK-MEL-5 cells measured after 48 hrs by sulforhodamine B assay; format: functional; settings: for CC50: read-out: LC50 (the source's name)
[5] = system: NCI-H522; experiment: Growth inhibition of human NCI-H522 cells at 10 uM measured after 48 hrs by sulforhodamine B assay; format: functional, cell-based
[6] = system: COLO 205; experiment: Growth inhibition of human COLO 205 cells at 10 uM measured after 48 hrs by sulforhodamine B assay; format: functional, cell-based
[7] = system: MDA-MB-435; experiment: Growth inhibition of human MDA-MB-435 cells at 10 uM measured after 48 hrs by sulforhodamine B assay; format: functional, cell-based
[8] = system: SK-MEL-5; experiment: Growth inhibition of human SK-MEL-5 cells at 10 uM measured after 48 hrs by sulforhodamine B assay; format: functional, cell-based
[9] = species: Sus scrofa; experiment: Inhibition of porcine brain tubulin polymerization assessed as microtubule destabilization at 10 uM measured at 60 secs interval for 60 mins in presence of GTP by fluorescence assay

| SMILES | growth inhibition (GI) [1] | growth inhibition (GI) [2] | growth inhibition (GI) [3] | growth inhibition (GI) [4] | growth inhibition (GI) [5] | growth inhibition (GI) [6] | growth inhibition (GI) [7] | growth inhibition (GI) [8] | GI50 [1] | GI50 [2] | CC50 [2] | GI50 [3] | GI50 [4] | inhibition [9] | CC50 [1] | CC50 [3] | CC50 [4] |
| --- | --- | --- | --- | --- | --- | --- | --- | --- | --- | --- | --- | --- | --- | --- | --- | --- | --- |
| O=C(O)c1ccc(-c2ccc(/C=N/NC(=O)c3[nH]c4ccc(Br)cc4c3-c3ccccc3)s2)cc1 | Active | Active | Active | Active | Active | Active | Active | Active |  |  |  |  |  |  |  |  |  |
| O=C(N/N=C/c1ccc(-c2ccc(O)cc2)s1)c1[nH]c2ccc(Br)cc2c1-c1ccccc1 | Active | Active | Active | Active | Active | Active | Active | Active |  |  |  |  |  |  |  |  |  |
| O=C(N/N=C/c1ccc(B(O)O)s1)c1[nH]c2ccc(Br)cc2c1-c1ccccc1 |  |  |  |  | Active | Active | Active | Active | > 100 nM | > 100 nM | 4980 nM | > 100 nM | > 100 nM |  |  |  |  |
| O=C(N/N=C/c1ccc([N+](=O)[O-])s1)c1[nH]c2ccc(Br)cc2c1-c1ccccc1 |  |  |  |  | Active | Active | Active | Active | 47.3 nM | 203 nM | 795 nM | 181 nM | 214 nM | inactive | > 100000 nM | 861 nM | 1870 nM |
| N#Cc1ccc(/C=N/NC(=O)c2[nH]c3ccc(Br)cc3c2-c2ccccc2)s1 |  |  |  |  | Active | Active | Active | Active | 23 nM | 195 nM | > 100000 nM | 36 nM | 124 nM | inactive | > 100000 nM | > 100000 nM | 4610 nM |
| O=C(N/N=C/c1cccs1)c1[nH]c2ccc(Br)cc2c1-c1ccccc1 | Active | Active | Active | Active | Active | Active | Active | Active |  |  | > 10000 nM |  |  |  | > 10000 nM | > 10000 nM | > 10000 nM |
| O=C(N/N=C/c1ccsc1)c1[nH]c2ccc(Br)cc2c1-c1ccccc1 |  |  |  |  | Active | Active | Active | Active | > 100 nM | > 100 nM | > 10000 nM | 78.9 nM | > 100 nM |  | > 10000 nM | > 10000 nM | > 10000 nM |
| O=C(N/N=C/c1ccc(-c2cccc([N+](=O)[O-])c2)o1)c1[nH]c2ccc(Br)cc2c1-c1ccccc1 |  |  |  |  | Active |  |  |  |  |  |  |  |  |  | 9130 nM |  |  |
